Data reported in patent publication US10617660B2, “Compositions containing benzoate compound and tannic acid for treating central nervous system disorders” (SyneuRx International (Taiwan) Corp., priority 2016, dated 2020).
“Also recorded” adds a separate entry of the source.

Key:
MK801-treated mice [1] = test: Prepulse inhibition test of sensorimotor gating function (MK801-disrupted PPI); assay type: in vivo
Method: (§1) C57BL/6J male mice were group housed (3-5 mice per cage) with food and water available ad libitum in polysulfone ventilated cages (Alternative Design, AR, USA) in the animal rooms. The colony was maintained on a 12/12-h light/dark cycle at the temperature of 22±2° C. and all behavioral studies will be performed during the dark cycle. All animals used in this study were adult mice (at least 2.5 months of age).
The mice were randomly assigned into ten groups listed below:
Group 9: Sodium benzoate (1000 mg/kg)+MK801
Group 10: Sodium benzoate (200 mg/kg)+MK801
Group 11: Sodium benzoate (600 mg/kg)+MK801
Group 12: Sodium benzoate (200 mg/kg)+Tannic Acid (30 mg/kg)+MK801
Group 13: Sodium benzoate (200 mg/kg)+Tannic Acid (60 mg/kg)+MK801
Group 14: Sodium benzoate (600 mg/kg)+Tannic Acid (10 mg/kg)+MK801
Group 15: Sodium benzoate (600 mg/kg)+Tannic Acid (30 mg/kg)+MK801
Group 16: Sodium benzoate (600 mg/kg)+Tannic Acid (60 mg/kg)+MK801.
Each mouse in Groups 8-16 received an acute administration of MK801 dissolved in normal saline (0.1 mg/kg, i.p.) 20 minutes prior to the behavioral tests. Each mouse in Groups 9-16 received an acute administration of sodium benzoate or sodium benzoate in combination with tannic acid (dissolved in PBS, 10, 30 or 60 mg/kg) via oral gavage 20 minutes prior to the MK801 administration.
The mice were randomly assigned into five groups listed below:
Group 19: Tannic acid_10 mg/kg+MK801
Group 20: Tannic acid_30 mg/kg+MK801
Each mouse in Groups 18-21 received an acute administration of MK-801 (a NMDA receptor antagonist, dissolved in normal saline (0.1 mg/kg, i.p.) 20 minutes prior to behavioral tests. On the other hand, each mouse in Groups 19-21 received an acute administration of tannic acid (dissolved in 30% PEG400 in PBS, 10, 30 or 100 mg/kg) via oral gavage 20 minutes prior to the MK801 administration.
(§2) All mice of cohort 1 in this study were assessed with open field test as described herein. The mice of cohorts 2 and 3 in this study were assessed with prepulse inhibition test as described herein.
Prepulse inhibition was used as an index of sensorimotor gating function using SR-LAB startle apparatus (San Diego Instruments, San Diego, Calif., USA). The startle stimulus was a 40 ms, 120 dB white noise burst. In the pre-pulse (pp)+pulse trials, a 20 ms white noise pre-pulse stimuli of 82 dB (pp10) or 90 dB (pp18) was presented 100 ms before a 40 ms 120 dB pulse. The trials were presented pseudo-randomly and separated by inter-trial interval of 15 s on average (varying between 10 to 20 s) under 72 dB background noise. The percentage of pre-pulse inhibition was evaluated by the following formula: % PPI=100×[(PA score)−(pp-P score)]/(PA score), where the PA score was the average of the PA value in the middle blocks.

MK801-treated mice [2] = test: Open field test of spontaneous locomotor activity (MK801-induced hyper-locomotion); assay type: in vivo; conditions: for effect on MK801-induced hyperactivity (total distance traveled in open field test): oral gavage, cohort 1, FIG. 2
Method: as §1
The mice were randomly assigned into six groups listed below:
Group 3: Sodium benzoate (1000 mg/kg)+MK801
Group 4: Sodium benzoate (200 mg/kg)+MK801 […]
Group 6: Sodium benzoate (200 mg/kg)+Tannic Acid (60 mg/kg)+MK801.
Each mouse in Groups 2-6 received an acute administration of MK801 dissolved in normal saline (0.1 mg/kg, i.p.) 20 minutes prior to the behavioral tests. […]
as §2
The open field test is a common measurement of novelty induced exploratory behavior and general activity in both mice and rats. In this study, mice were placed in a Plexiglas cage (37.5 cm×21.5 cm×18 cm) under 50-65 lux light intensity. Their spontaneous locomotor activities were measured for 60 minutes using the EthoVision video tracking system (Noldus Information Technology, the Netherlands). The travel distance of each mouse was measured as an index of locomotion activity. It generates hyperactivity which is frequently applied as animal models including, but not limited to, schizophrenia, bipolar disorder, attention-deficit hyperactivity disorder, obsessive compulsive disorder, Tourette's syndrome, autism spectrum disorders, Fragile X syndrome, Parkinson's disease, dementia with Lewy bodies, and senile dementia (see Rubia et al., 2010; Sheppard and Bradshaw, 1999; Bent et al., 2014; Powell and Miyakawa, 2006; Nestler and Hyman, 2010; Bubeni{acute over ( )}kova{acute over ( )}-Vales{hacek over ( )}ova et al., 2008; Gobira et al., 2013; Lai et al., 2014; Maio et al., 2014; Sontag et al., 2010; Ding et al., 2014; Walitza et al., 2007; Finestone et al., 1982; Golimstok et al., 2011).

[3] = MK801 0.1 mg/kg i.p., 20 minutes prior to test, model-inducing agent

C[C@]12N[C@H](Cc3ccccc31)c1ccccc12 [MK801]
effect on prepulse inhibition (MK801-treated mice [1]; [3]): impairs prepulse inhibition
effect on locomotion (total distance traveled in open field test) (MK801-treated mice [2]; [3]): induced hyperactivity

O=C([O-])c1ccccc1.[Na+] [sodium benzoate]
effect on rescuing MK801-disrupted PPI (MK801-treated mice [1]; sodium benzoate alone 200 mg/kg or 600 mg/kg, oral gavage, cohort 2, prepulse 82 dB and 90 dB): did not show much effects
effect on MK801-impaired prepulse inhibition (percentage of pre-pulse inhibition) (MK801-treated mice [1]; sodium benzoate alone at 200, 600 or 1000 mg/kg, FIG. 3 legend): can be improved
effect on MK801-induced hyperactivity (total distance traveled in open field test) (MK801-treated mice [2]; sodium benzoate 200 mg/kg alone, MK801 0.1 mg/kg i.p.): less effective
effect on MK801-induced hyperactivity (total distance traveled in open field test) (MK801-treated mice [2]; sodium benzoate 1000 mg/kg alone, MK801 0.1 mg/kg i.p.): rescued/protected mice from MK801 induced hyper-locomotion more than 200 mg/kg; also recorded: completely prevented

O=C(OC[C@H]1O[C@@H](OC(=O)c2cc(O)c(O)c(OC(=O)c3cc(O)c(O)c(O)c3)c2)[C@H](OC(=O)c2cc(O)c(O)c(OC(=O)c3cc(O)c(O)c(O)c3)c2)[C@@H](OC(=O)c2cc(O)c(O)c(OC(=O)c3cc(O)c(O)c(O)c3)c2)[C@@H]1OC(=O)c1cc(O)c(O)c(OC(=O)c2cc(O)c(O)c(O)c2)c1)c1cc(O)c(O)c(OC(=O)c2cc(O)c(O)c(O)c2)c1 [tannic acid]
effect on MK801-disrupted PPI (MK801-treated mice [1]; tannic acid alone 10, 30, 100 mg/kg, oral gavage, MK801 0.1 mg/kg i.p., cohort 3, prepulse 82 dB and 90 dB, FIG. 4): little or no effects; also recorded: little or no improvement; also recorded: little or no impact
effect on rescuing MK801-induced hyper-locomotion (MK801-treated mice [2]; tannic acid alone, dose not given): little or no effect
